# Data as given in EP4417190A1, “CYCLIC PEPTIDES WITH ANTI-AGING EFFICACY” (Lipotrue, S.L., priority 2023, dated 2024).
# Where two headings read alike, the source gives them in different places.
# What was measured:
# [1] = MTT assay, toxicity on HEKa cells; type: cell-based; conditions: human, normalized to non-treated cells, read-out: Cell viability
# Experimental: Toxicity of cycled peptides A and B was analyzed on human dermal fibroblasts (HDFa) and adult human epidermal keratinocytes HEKa cells by MTT assay. A stock solution of the peptide was prepared in distilled water at 25 mg/mL. This stock solution was further diluted to obtain the final working concentrations (0.001, 0.005, 0.01, 0.05, 0.1 and 0.5 mg/mL) in the corresponding culture medium. Untreated cells were used as negative control samples (Basal).
# Briefly, HEKa and HDFa cells were seeded in 96-well plates at a concentration of 1×10^5 cells/mL in a final volume of 200 µL of medium (20,000 cells/well). HEKa cells were incubated in Dermal Cell Basal Medium supplemented with the Keratinocytes Growth Kit; and HDFa cells were cultured in Medium 106 supplemented with 2% of LSGS. Cells were incubated at 37°C, 5% CO2 and saturated humidity.
# After 24 h of incubation, cells were treated with different concentrations of each peptide (0.001, 0.005, 0.01, 0.05, 0.1 and 0.5 mg/mL) in triplicates, for MTT evaluation. After 24 h of treatment with the peptide, medium was completely removed, and 100 µL of 0.5 mg/mL MTT solution in supplemented medium were added to each well and cells were incubated at 37°C for 3 h. After incubating with MTT, the medium of each well was aspirated and 150 µL of DMSO were added in order to solubilise the formazan crystals formed. The plates were placed on a shaker for 5 minutes for complete solubilisation of the crystals and then the absorbance at 570 nm of each well was determined, using the microplate reader Multiskan FC, which is directly proportional to the number of living cells in culture.
# Absorbance values were normalized using the data obtained for non-treated cells (control), obtaining the % of viability shown in Tables 1 and 2. Each condition was performed in triplicate (n=3) in 3 independent experiments (N=3).
# Concentrations of peptide for which viability is above 80% are considered safe for efficacy testing. On the contrary, concentrations for which viability goes below 80% are considered potentially toxic and are not used for efficacy testing purposes. Table 1: Toxicity of cycled peptides on HDFa cells.
# [2] = tested on: Collagen I (COL1); experiment: Collagen I immunostaining in HDF treated with conditioned media from peptide-treated keratinocytes; type: cell-based, human; conditions: 4 days of treatment with conditioned medium from peptide-treated keratinocytes (Figure 8)
# Experimental: For TGFβ3 gene expression assessment, HEKa cells were seeded in 24-well plate at a density of […] and incubated at 37 °C in a humidified atmosphere with 5% CO2. Next day, cell culture media was replaced by fresh media containing 0.0025 or 0.01 mg/mL of cycled peptide B. In parallel, HDF cells were seeded on culture plates with or without coverslips (for immunofluorescence or qPCR, respectively) and incubated for 24 h.
# Conditioned media from HEKa cells after 48 hours of treatment was then transferred to HDF culture plates. Cells were maintained in culture for additional 24h (for qPCR) or for 4 days (for collagen I immunostaining).
# For the evaluation of collagen I (COLI) synthesis by immunostaining, HDF cells treated with HEKa conditioned media (as explained above) were washed twice with PBS, fixed with 4% formaldehyde and permeabilized with Triton X-100 0.2%. Next, samples were blocked for 1 hour with PBS/BSA 5%, in order to avoid nonspecific antibody binding. For collagen I staining, samples were incubated for 2 hours with Monoclonal Anti-Collagen, Type I antibody diluted 1:100 in PBS/BSA 1%, at room temperature. […] Images were analyzed using Image J software as mentioned above.
compound,measurement,setting,value
"CC(C)C[C@@H]1NC(=O)[C@H](C)NC(=O)[C@H](Cc2c[nH]cn2)NC(=O)[C@H](Cc2c[nH]c3ccccc23)NC(=O)[C@H](Cc2ccccc2)NC(=O)[C@H](CCCNC(=N)N)NC1=O [Peptide B, cyclo-Phe-Trp- His- Ala-Leu-Arg]",viability at 24 h,[1]; 0.001 mg/mL peptide,102%
same,viability at 24 h,[1]; 0.005 mg/mL peptide,103%
same,viability at 24 h,[1]; 0.01 mg/mL peptide,107%
same,viability at 24 h,[1]; 0.05 mg/mL peptide,91.4%
same,viability at 24 h,[1]; 0.1 mg/mL peptide,85.8%
same,viability at 24 h,[1]; 0.5 mg/mL peptide,61.8%
same,Collagen I (COL1) levels,[2],significantly increased
